Laboratory results from ChEMBL document CHEMBL6083210, “Exploring apoptotic induction of malabaricone A in triple-negative breast cancer cells: an acylphenol phyto-entity isolated from the fruit rind of Myristica malabarica Lam” (RSC Med Chem, 2024).
The source made the active and inactive calls. The calls are words filed in the database; no cut-off is given here.

Key:
MDA-MB-231 [1] = assay: Induction of apoptosis in human MDA-MB-231 cells assessed as necrotic cells at 10 uM incubated for 24 hrs by FITC annexin V staining based analysis (reference value: 0.8%); type: functional
MDA-MB-231 [2] = assay: Induction of cell cycle arrest in human MDA-MB-231 cells assessed as accumulation of cells at Sub G0 phase at 6 uM incubated for 24 hrs by PI staining based flow cytometry analysis (reference value: 5.3%); type: functional
MDA-MB-231 [3] = assay: Upregulation of TNF-alpha protein level in human MDA-MB-231 cells at 8 uM measured after 24 hrs; type: functional, cell-based
MDA-MB-231 [4] = assay: Upregulation of TNF-R1 protein level in human MDA-MB-231 cells at 8 uM measured after 24 hrs; type: functional, cell-based
MDA-MB-231 [5] = assay: Induction of apoptosis in human MDA-MB-231 cells assessed as viable cells at 10 uM incubated for 24 hrs by FITC annexin V staining based analysis (reference value: 90.5%); type: functional; conditions: read-out: Activity
MDA-MB-231 [6] = assay: Induction of morphological changes in human MDA-MB-231 cells assessed as decrease in cell number at 15 uM measured upto 18 hrs by acridine orange and ethidium bromide dual staining based inverted microscopic analysis; type: functional
MDA-MB-231 [7] = assay: Induction of apoptosis in human MDA-MB-231 cells assessed as viable cells at 8 uM incubated for 24 hrs by FITC annexin V staining based analysis (reference value: 90.5%); type: functional; conditions: read-out: Activity
MDA-MB-231 [8] = assay: Induction of cell cycle arrest in human MDA-MB-231 cells assessed as accumulation of cells at G2 phase at 8 uM incubated for 24 hrs by PI staining based flow cytometry analysis (reference value: 7.9%); type: functional
MDA-MB-231 [9] = assay: Induction of apoptosis in human MDA-MB-231 cells assessed as fold increase in caspase 8 level at 8 uM incubated for 24 hrs by fluorometric assay; type: functional
MDA-MB-231 [10] = assay: Induction of cell cycle arrest in human MDA-MB-231 cells assessed as accumulation of cells at Sub G0 phase at 8 uM incubated for 24 hrs by PI staining based flow cytometry analysis (reference value: 5.3%); type: functional
MDA-MB-231 [11] = assay: Downregulation of cyclin A2 level in human MDA-MB-231 cells at 6 to 10 uM by Western blot analysis; type: functional, cell-based; conditions: dose 6-10 µM
MDA-MB-231 [12] = assay: Induction of morphological changes in human MDA-MB-231 cells assessed as leakage of intracellular components at 6 to 10 uM measured 24 hrs by EtBr-AO Live dead Assay; type: functional, cell-based; conditions: dose 6-10 µM
MDA-MB-231 [13] = assay: Induction of cell cycle arrest in human MDA-MB-231 cells assessed as accumulation of cells at G2 phase at 6 uM incubated for 24 hrs by PI staining based flow cytometry analysis (reference value: 7.9%); type: functional
MDA-MB-231 [14] = assay: Downregulation of cIAP-2 protein level in human MDA-MB-231 cells at 8 uM measured after 24 hrs; type: functional, cell-based
SK-BR-3 = assay: Antiproliferative activity against human SK-BR-3 cells assessed as reduction in cell viability incubated for 24 hrs by MTT assay; type: functional, cell-based; conditions: SK-BR-3, 24 h
MDA-MB-231 [15] = assay: Upregulation of p53 protein level in human MDA-MB-231 cells at 8 uM measured after 24 hrs; type: functional, cell-based
MDA-MB-231 [16] = assay: Induction of apoptosis in human MDA-MB-231 cells assessed as increase in green fluorescence at 6 to 10 uM by acridine orange and ethidium bromide dual staining based analysis; type: functional, cell-based; conditions: dose 6-10 µM, time 12-48 hrs
MDA-MB-231 [17] = assay: Induction of morphological changes in human MDA-MB-231 cells assessed as appearance of spherical shaped cell at 6 to 10 uM measured 24 hrs by EtBr-AO Live dead Assay; type: functional, cell-based; conditions: dose 6-10 µM
MDA-MB-231 [18] = assay: Upregulation of Bax protein level in human MDA-MB-231 cells at 8 uM measured after 24 hrs; type: functional, cell-based
MDA-MB-231 [19] = assay: Antiproliferative activity against human MDA-MB-231 cells assessed as reduction in cell viability incubated for 24 hrs by MTT assay; type: functional, cell-based; conditions: MDA-MB-231, 24 h
MDA-MB-231 [20] = assay: Induction of apoptosis in human MDA-MB-231 cells assessed as necrotic cells at 6 uM incubated for 24 hrs by FITC annexin V staining based analysis (reference value: 0.8%); type: functional
MDA-MB-231 [21] = assay: Downregulation of XIAP protein level in human MDA-MB-231 cells at 8 uM measured after 24 hrs; type: functional, cell-based
MDA-MB-231 [22] = assay: Induction of cell cycle arrest in human MDA-MB-231 cells assessed as accumulation of cells at S phase at 6 uM incubated for 24 hrs by PI staining based flow cytometry analysis (reference value: 12.0%); type: functional
MDA-MB-231 [23] = assay: Downregulation of Cdc25c level in human MDA-MB-231 cells at 6 to 10 uM by Western blot analysis; type: functional, cell-based; conditions: dose 6-10 µM
MDA-MB-231 [24] = assay: Induction of cell cycle arrest in human MDA-MB-231 cells assessed as accumulation of cells at G1 phase at 8 uM incubated for 24 hrs by PI staining based flow cytometry analysis (reference value: 74.2%); type: functional
MDA-MB-231 [25] = assay: Induction of apoptosis in human MDA-MB-231 cells assessed as necrotic cells at 8 uM incubated for 24 hrs by FITC annexin V staining based analysis (reference value: 0.8%); type: functional
MDA-MB-231 [26] = assay: Induction of DNA fragmentation in human MDA-MB-231 cells assessed as appearance of ladder-like pattern at 6 to 10 uM; type: functional, cell-based; conditions: dose 6-10 µM
MDA-MB-231 [27] = assay: Induction of cell cycle arrest in human MDA-MB-231 cells assessed as accumulation of cells at G1 phase at 6 uM incubated for 24 hrs by PI staining based flow cytometry analysis (reference value: 74.2%); type: functional
MDA-MB-231 [28] = assay: Induction of apoptosis in human MDA-MB-231 cells assessed as late apoptotic cells at 10 uM incubated for 24 hrs by FITC annexin V staining based analysis (reference value: 7.3%); type: functional

O=C(CCCCCCCCc1ccccc1)c1c(O)cccc1O [MALABARICONE A]
Activity (MDA-MB-231 [1]): 12.7% | Activity (MDA-MB-231 [2]): 48.7% | Activity (MDA-MB-231 [3]): Active | Activity (MDA-MB-231 [4]): Active | viability at 10 µM (MDA-MB-231 [5]): 32.4% | Activity (MDA-MB-231 [6]): Active | viability at 8 µM (MDA-MB-231 [7]): 50.2% | Activity (MDA-MB-231 [8]): 2.9% | fold change (FC) (MDA-MB-231 [9]): 2.4 | Activity (MDA-MB-231 [10]): 59.7% | Activity (MDA-MB-231 [11]): Active | Activity (MDA-MB-231 [12]): Active | Activity (MDA-MB-231 [13]): 3.9% | Activity (MDA-MB-231 [14]): Active | IC50 (SK-BR-3): 8.39 µM | Activity (MDA-MB-231 [15]): Active | Activity (MDA-MB-231 [16]): Time-dependent-effect | Activity (MDA-MB-231 [17]): Active | Activity (MDA-MB-231 [18]): Active | IC50 (MDA-MB-231 [19]): 8.81 µM | Activity (MDA-MB-231 [20]): 3.85% | Activity (MDA-MB-231 [21]): Active | Activity (MDA-MB-231 [22]): 9.7% | Activity (MDA-MB-231 [23]): Active | Activity (MDA-MB-231 [24]): 27.5% | Activity (MDA-MB-231 [25]): 8.05% | Activity (MDA-MB-231 [26]): Active | Activity (MDA-MB-231 [27]): 36.8% | Activity (MDA-MB-231 [28]): 50.65%
